Measurements as given in US11897886B2, “Pyrazolo[4,3-d]pyrimidines as antitumor agents” (Duquesne University of the Holy Spirit, priority 2018, dated 2024).
Read-outs that look alike come from different tables or passages of the source.

What was measured:
OVCAR-8 = assay: Compound activity in OVCAR-8 cell line; type: cell-based; details: for IC50: OVCAR-8, read-out: OVCAR-8 IC50 (nM) ± SD
NCI/ADR-RES = assay: Compound activity in a P-gp overexpressing cell line NCI/ADR-RES; type: cell-based; details: for IC50: P-gp overexpressing cell line
MCF-7/TAX Pgp = assay: MCF-7/TAX (Pgp) cell activity; type: cell-based; details: for EC50: Homo sapiens, MCF7
MCF-7-TUBB3 β3-tubulin = assay: MCF-7-TUBB3 (β3-tubulin) cell activity; type: cell-based
MCF-7 WT = MCF-7 WT cell activity; type: cell-based; details: Homo sapiens, MCF7
MIA PaCa-2 = MIA PaCa-2 cell line activity; type: cell-based; details: Table 2, read-out: MIA PaCa-2 (nM ± SD)
tubulin = tubulin (Bos taurus, UniProt P81947+Q6B856); assay: Inhibition of [3H]colchicine binding to tubulin
tubulin, sequence (Q6B856 whole entry): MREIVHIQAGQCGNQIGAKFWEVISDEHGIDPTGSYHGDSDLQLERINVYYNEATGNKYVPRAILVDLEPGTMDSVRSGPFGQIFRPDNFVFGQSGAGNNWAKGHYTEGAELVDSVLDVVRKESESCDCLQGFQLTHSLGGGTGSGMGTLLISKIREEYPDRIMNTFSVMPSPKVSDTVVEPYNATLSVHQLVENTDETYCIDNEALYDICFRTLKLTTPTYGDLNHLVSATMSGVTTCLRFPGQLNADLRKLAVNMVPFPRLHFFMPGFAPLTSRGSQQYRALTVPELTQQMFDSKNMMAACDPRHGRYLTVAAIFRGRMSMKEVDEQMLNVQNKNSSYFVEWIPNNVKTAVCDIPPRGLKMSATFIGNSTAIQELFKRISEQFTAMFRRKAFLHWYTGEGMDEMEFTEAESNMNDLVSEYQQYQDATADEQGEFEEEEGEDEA
tubulin, sequence (P81947 whole entry): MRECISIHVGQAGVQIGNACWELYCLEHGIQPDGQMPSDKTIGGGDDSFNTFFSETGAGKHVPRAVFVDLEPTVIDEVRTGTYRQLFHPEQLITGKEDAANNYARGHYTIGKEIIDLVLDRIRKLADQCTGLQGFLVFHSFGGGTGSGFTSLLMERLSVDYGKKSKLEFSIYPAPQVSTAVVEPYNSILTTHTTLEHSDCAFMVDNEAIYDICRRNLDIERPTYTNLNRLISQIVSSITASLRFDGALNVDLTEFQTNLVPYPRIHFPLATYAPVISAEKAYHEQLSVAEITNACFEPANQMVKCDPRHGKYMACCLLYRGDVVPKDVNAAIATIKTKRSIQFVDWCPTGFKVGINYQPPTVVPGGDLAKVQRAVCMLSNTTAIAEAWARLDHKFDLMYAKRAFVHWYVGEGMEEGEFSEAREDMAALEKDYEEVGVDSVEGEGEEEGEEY

[1] = Homo sapiens, NCI/ADR-RES, Table 1, read-out: NCl/ADR-RES IC50 (nM) ± SD
[2] = Homo sapiens, NCI/ADR-RES, Table 2, read-out: NCI/ADR-RES IC50 (nM) ± SD

IC50 (OVCAR-8; Homo sapiens, Table 1) | EC50 (MCF-7/TAX Pgp) | EC50 (MCF-7-TUBB3 β3-tubulin) | IC50 (NCI/ADR-RES; [1]) | IC50 (NCI/ADR-RES; [2]) | EC50 (MCF-7 WT) | SMILES | RESISTANCE RATIO Pgp/WT (MCF-7/TAX Pgp; MCF-7/TAX vs MCF-7 WT) | RESISTANCE RATIO β3-tubulin/WT (MCF-7-TUBB3 β3-tubulin; MCF-7-TUBB3 vs MCF-7 WT) | also measured
– | – | – | – | – | – | COc1ccc(/C=C\c2cc(OC)c(OC)c(OC)c2)cc1O [CS-A4, Combretastatin A-4, reference compound] | – | – | IC50 (OVCAR-8; Table 1): 3.5 ± 0.7 nM; IC50 (OVCAR-8; Table 2): 3.5 ± 0.7 nM; IC50 (NCI/ADR-RES; Table 1, read-out: NCl/ADR-RES IC50 (nM) ± SD): 2.3 ± 0.4 nM; IC50 (NCI/ADR-RES; Table 2, read-out: NCI/ADR-RES IC50 (nM) ± SD): 2.3 ± 0.4 nM
31 ± 2 nM | – | – | 17 ± 3 nM | 17 ± 3 nM | – | CSc1ccc(N(C)c2nc(Cl)nc3cnn(C)c23)cc1 [Compound 5, 5-chloro-N,1-dimethyl-N-(4-(methylthio)phenyl)-1H-pyrazolo[4,3-d]pyrimidin-7-amine] | – | – | IC50 (MIA PaCa-2; Homo sapiens): 20.9 ± 0.651 nM
17 ± 2 nM | – | – | 8 ± 0.7 nM | 8 ± 0.7 nM | – | COc1ccc2c(c1)CCCN2c1nc(Cl)nc2cnn(C)c12 [Compound 6, 1-(5-chloro-1-methyl-1H-pyrazolo[4,3-d]pyrimidin-7-yl)-6-methoxy-1,2,3,4-tetrahydroquinoline] | – | – | IC50 (MIA PaCa-2; Homo sapiens): 48 ± 2.77 nM
– | 0.0081 ± 0.0002 µM | 0.0026 ± 0.0004 µM | – | 7 ± 3 nM | 0.0017 ± 0.0002 µM | COc1ccc(N(C)c2nc(Cl)nc3cnn(C)c23)cc1F [Compound 6d7, 5-chloro-N-(3-fluoro-4-methoxyphenyl)-N,1-dimethyl-1H-pyrazolo[4,3-d]pyrimidin-7-amine] | 4.8 | 1.6 | IC50 (OVCAR-8; Homo sapiens, Table 2): 9 ± 1 nM
14 ± 3 nM | 0.043 ± 0.0072 µM | 0.0168 ± 0.0015 µM | 11 ± 0.7 nM | 11 ± 0.7 nM | 0.0352 ± 0.0047 µM | COc1cccc2cc(N(C)c3nc(Cl)nc4cnn(C)c34)ccc12 [Compound 7, 5-chloro-N-(5-methoxynaphthalen-2-yl)-N,1-dimethyl-1H-pyrazolo[4,3-d]pyrimidin-7-amine] | 1.2 | 0.5 | –
2 ± 1 nM | 0.0313 ± 0.0035 µM | 0.0097 ± 0.001 µM | 4 ± 1 nM | 4 ± 1 nM | 0.0077 ± 0.0007 µM | CCOc1ccc(N(C)c2nc(Cl)nc3cnn(C)c23)cc1 [Compound 8, 5-chloro-N-(4-ethoxyphenyl)-N,1-dimethyl-1H-pyrazolo[4,3-d]pyrimidin-7-amine] | 4.0 | 1.3 | fold improvement of OVCAR-8 cell line activity (OVCAR-8; over compound 4): around 4 fold
49 ± 10 nM | – | – | 44 ± 8 nM | 44 ± 8 nM | – | CC(C)Oc1ccc(N(C)c2nc(Cl)nc3cnn(C)c23)cc1 [Compound 9, 5-chloro-N-(4-isopropoxyphenyl)-N,1-dimethyl-1H-pyrazolo[4,3-d]pyrimidin-7-amine] | – | – | –
880 ± 40 nM | – | – | 730 ± 100 nM | 730 ± 100 nM | – | CN(c1ccc(OC(F)(F)F)cc1)c1nc(Cl)nc2cnn(C)c12 [Compound 10, 5-chloro-N,1-dimethyl-N-(4-(trifluoromethoxy)phenyl)-1H-pyrazolo[4,3-d]pyrimidin-7-amine] | – | – | –
> 5000 nM | – | – | > 5000 nM | – | – | COc1ccc(Nc2nc(Cl)nc3cnn(C)c23)cc1 [Compound 11, 5-chloro-N-(4-methoxyphenyl)-1-methyl-1H-pyrazolo[4,3-d]pyrimidin-7-amine] | – | – | activity in OVCAR-8 cell line (OVCAR-8): not active; activity in NCI/ADR-RES cell line (NCI/ADR-RES): not active; colchicine inhibition (tubulin): did not show colchicine inhibition
– | – | – | – | – | – | Nc1ccn([C@@H]2O[C@H](CO)[C@@H](O)C2(F)F)c(=O)n1 [GEM, reference compound] | – | – | IC50 (MIA PaCa-2): 297 nM
– | – | – | – | – | – | Nc1nc2[nH]cc(CCc3ccc(C(=O)N[C@@H](CCC(=O)O)C(=O)O)cc3)c2c(=O)[nH]1 [PMX, reference compound] | – | – | IC50 (MIA PaCa-2): 16.1 ± 1.4 nM

SMILES | IC50 (OVCAR-8; Homo sapiens, Table 1) | EC50 (MCF-7/TAX Pgp) | EC50 (MCF-7-TUBB3 β3-tubulin) | IC50 (NCI/ADR-RES; [1]) | IC50 (NCI/ADR-RES; [2]) | EC50 (MCF-7 WT) | RESISTANCE RATIO Pgp/WT (MCF-7/TAX Pgp; MCF-7/TAX vs MCF-7 WT) | RESISTANCE RATIO β3-tubulin/WT (MCF-7-TUBB3 β3-tubulin; MCF-7-TUBB3 vs MCF-7 WT) | also measured
COc1ccc(N(C)c2nc(Cl)nc3cnn(C)c23)cc1 [Compound 4, 5-chloro-N-(4-methoxyphenyl)-N,1-dimethyl-1H-pyrazolo[4,3-d]pyrimidin-7-amine] | 9 ± 0.7 nM | 0.0151 ± 0.002 µM | 0.0033 ± 0.0004 µM | 5 nM | 5 nM | 0.002 ± 0.0003 µM | 3.8 | 1.1 | IC50 (MIA PaCa-2; Homo sapiens): 22.7 ± 1.13 nM
CC(=O)O[C@H]1C(=O)[C@@]2(C)[C@H]([C@H](OC(=O)c3ccccc3)[C@]3(O)C[C@H](OC(=O)[C@H](O)[C@@H](NC(=O)c4ccccc4)c4ccccc4)C(C)=C1C3(C)C)[C@]1(OC(C)=O)CO[C@@H]1C[C@@H]2O [Paclitaxel, reference compound] | 7 ± 2 nM | 3.23 µM | 2.07 µM | > 5000 nM | > 5000 nM | 0.194 µM | – | – | […] Pgp/WT (MCF-7/TAX Pgp; MCF-7/TAX vs MCF-7 WT): 16.6; […] β3-tubulin/WT (MCF-7-TUBB3 β3-tubulin; MCF-7-TUBB3 vs MCF-7 WT): 10.6
